Data from patent US11039618B2, “Metam salts and polysulfide soil treatment” (Tessenderlo Kerley, Inc, priority 2016, dated 2021).

Columns and labels:
soilborne disease = conditions: about 40 gallons of metam sodium per acre (190 Kg/ha); commercial conditions; cited from earlier work
V. dahliae = assay: Field test near Moses Lake, Wash.: V. dahliae colonies in soil after shank treatment; set-up: species or system Verticillium dahliae; conditions: average of three sample sites, metam sodium 191 pounds/acre, calcium polysulfide 276 pounds/acre
Procedure: A field test was performed in small plots in a grower's location in near Moses Lake, Wash. using commercial equipment, shanking the product 8-9 inches into the ground, in February 2016. A few treated areas were sampled a few months after treatment. This field is believed to be low in pest pressure. […] The mixture is compatible as a ground application, including using standard tanks, hoses, nozzles, and shanks. It is believed the product will also be stable when added to water to form a dilute product, due to the sodium or potassium hydroxide in metam. Therefore, alkali sulfide salts need not be added.
Location 1 was treated with 45 gallons per acre of Sectagon®, the metam sodium solution, equivalent to 191 pounds metam sodium per acre. This is considered a standard treatment protocol. Section 2 was treated with only liquid lime sulfur, at 90 gallons per acre (276 pounds calcium polysulfide/acre). Section 3 was treated with 30 gallons per acre Sectagon® and 30 gallons per acre liquid lime sulfur (92 pounds calcium polysulfide and 127 pounds metam sodium per acre). The treatment chemicals were obtained from Tessenderlo Kerley. A sufficient time following the treatments, V. dahliae concentrations and black dot concentrations were determined at 4 inches depth and at 8 inches depth at three random sample sites in each treated plot. No controls were run, and the variability in samples were high. […]

Verticillium dahliae = assay: Plate tests: Verticillium counts in treated greenhouse soil; assay type: cell-based; conditions: 20 gal./acre metam
Procedure: Seven days after treatment, one soil sample per replicate was taken. V. dahliae control efficacy was assessed according to the methods below. Soil mixture was dried two weeks under greenhouse conditions. The quantity of V. dahliae in the soil was/will be assessed by dry soil plating on semi-selective medium. Dry soil samples were crushed and sieved through a #20 mesh. A small portion of each sample was incubated on six NP-10 semi-selective plates with a 6-stage Impactor (Anderson Samplers Inc., Atlanta, Ga.), using stages 2 and 3. Semi-selective NP-10 medium was prepared according to Kabir et al. (2004) and incubated at 24° C. in the dark for four weeks after spreading 0.5 g of soil. After incubation, the remaining soil was be gently washed off the plates and the number of V. dahliae microsclerotia colonies were counted on each plate under a microscope. The number of microsclerotia colonies equals the quantity of V. dahliae in soil and were extrapolated to 1 g of soil.
Plate tests were performed on selected samples to determine the Verticillium counts in treated soil through Aug. 17, 2017. Plate tests were performed as described previously. The untreated control comparative sample 1 averaged 32.5 ms per gram of soil. For reasons not known, the water check comparative sample 2, with no active ingredients added, contained only 11.5 ms per gram of soil. […]

## CNC(=S)S [Metam, sodium methyldithiocarbamate]
Soilborne disease
  reduction of certain soilborne disease: ~70%
V. dahliae; mixture 92 + 127 pounds/acre
  averaged colonies of V. dahlia per gram of soil at four inches: 30 colonies per gram of soil
V. dahliae; mixture 92 + 127 pounds/acre (8 inch samples called suspect)
  averaged colonies of V. dahlia per gram of soil at eight inches: 3 colonies per gram of soil
Verticillium dahliae
  Verticillium dahliae population: 3 ms per gram of soil
